Key:
[1] = target: T1, M-phase inducer phosphatase 2 (Homo sapiens) (UniProt P30305); test: Inhibition of Cdc25B (unknown origin) at 5 ug/ml
T1 sequence (whole entry): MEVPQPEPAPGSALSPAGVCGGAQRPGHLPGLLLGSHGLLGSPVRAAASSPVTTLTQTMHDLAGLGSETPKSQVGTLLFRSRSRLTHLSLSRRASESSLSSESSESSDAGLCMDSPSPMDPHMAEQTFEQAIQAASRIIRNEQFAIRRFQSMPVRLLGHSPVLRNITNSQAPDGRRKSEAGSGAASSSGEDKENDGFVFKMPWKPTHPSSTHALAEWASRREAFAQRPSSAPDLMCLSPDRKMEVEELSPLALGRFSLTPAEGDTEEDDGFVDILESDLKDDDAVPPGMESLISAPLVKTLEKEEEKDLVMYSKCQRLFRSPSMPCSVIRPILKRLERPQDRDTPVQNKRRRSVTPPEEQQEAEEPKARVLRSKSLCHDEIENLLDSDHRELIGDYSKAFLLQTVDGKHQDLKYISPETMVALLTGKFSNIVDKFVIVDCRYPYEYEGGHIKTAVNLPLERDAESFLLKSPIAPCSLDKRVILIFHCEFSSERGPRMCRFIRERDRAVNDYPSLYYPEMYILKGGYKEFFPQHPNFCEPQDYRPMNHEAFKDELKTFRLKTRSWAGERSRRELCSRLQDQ

[2] = target: T2, Tyrosine-protein phosphatase non-receptor type 1 (Homo sapiens, UniProt P18031); test: Inhibition of PTP1B (unknown origin)
T2 sequence (P18031 whole entry): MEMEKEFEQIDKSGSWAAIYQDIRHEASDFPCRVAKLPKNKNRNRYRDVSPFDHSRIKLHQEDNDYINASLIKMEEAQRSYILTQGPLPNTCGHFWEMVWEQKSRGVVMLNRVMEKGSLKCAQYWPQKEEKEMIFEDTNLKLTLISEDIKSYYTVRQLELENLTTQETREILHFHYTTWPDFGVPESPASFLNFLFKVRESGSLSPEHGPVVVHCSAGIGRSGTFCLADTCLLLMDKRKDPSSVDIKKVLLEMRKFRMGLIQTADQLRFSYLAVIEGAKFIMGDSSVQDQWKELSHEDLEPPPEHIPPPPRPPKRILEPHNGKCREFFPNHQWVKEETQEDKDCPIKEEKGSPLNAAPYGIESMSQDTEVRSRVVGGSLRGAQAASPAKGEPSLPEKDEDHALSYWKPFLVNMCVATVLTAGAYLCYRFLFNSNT

[3] = target: T3, Tyrosine-protein phosphatase non-receptor type 11 (Homo sapiens, UniProt Q06124); test: Inhibition of SHP2 (unknown origin)
T3 sequence (Q06124 whole entry): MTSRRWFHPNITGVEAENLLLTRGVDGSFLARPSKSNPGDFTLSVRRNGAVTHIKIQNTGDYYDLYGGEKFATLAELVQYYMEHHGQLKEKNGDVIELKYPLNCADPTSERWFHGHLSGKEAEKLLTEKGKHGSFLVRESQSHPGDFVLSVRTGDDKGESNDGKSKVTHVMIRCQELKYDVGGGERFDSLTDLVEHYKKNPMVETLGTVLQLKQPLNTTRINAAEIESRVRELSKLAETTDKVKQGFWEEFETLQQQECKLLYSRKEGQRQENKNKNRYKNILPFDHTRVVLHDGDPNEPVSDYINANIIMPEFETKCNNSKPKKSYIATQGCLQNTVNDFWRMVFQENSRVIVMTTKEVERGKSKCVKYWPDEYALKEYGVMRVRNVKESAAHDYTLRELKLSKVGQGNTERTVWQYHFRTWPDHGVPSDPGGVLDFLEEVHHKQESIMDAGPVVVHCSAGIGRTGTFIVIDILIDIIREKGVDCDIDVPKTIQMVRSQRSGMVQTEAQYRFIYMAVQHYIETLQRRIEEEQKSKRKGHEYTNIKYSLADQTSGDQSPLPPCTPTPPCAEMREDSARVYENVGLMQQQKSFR

[4] = target: Receptor-type tyrosine-protein phosphatase F (Homo sapiens, UniProt P10586); test: Inhibition of LAR (unknown origin)
Chain of Receptor-type tyrosine-protein phosphatase F (P10586 whole entry): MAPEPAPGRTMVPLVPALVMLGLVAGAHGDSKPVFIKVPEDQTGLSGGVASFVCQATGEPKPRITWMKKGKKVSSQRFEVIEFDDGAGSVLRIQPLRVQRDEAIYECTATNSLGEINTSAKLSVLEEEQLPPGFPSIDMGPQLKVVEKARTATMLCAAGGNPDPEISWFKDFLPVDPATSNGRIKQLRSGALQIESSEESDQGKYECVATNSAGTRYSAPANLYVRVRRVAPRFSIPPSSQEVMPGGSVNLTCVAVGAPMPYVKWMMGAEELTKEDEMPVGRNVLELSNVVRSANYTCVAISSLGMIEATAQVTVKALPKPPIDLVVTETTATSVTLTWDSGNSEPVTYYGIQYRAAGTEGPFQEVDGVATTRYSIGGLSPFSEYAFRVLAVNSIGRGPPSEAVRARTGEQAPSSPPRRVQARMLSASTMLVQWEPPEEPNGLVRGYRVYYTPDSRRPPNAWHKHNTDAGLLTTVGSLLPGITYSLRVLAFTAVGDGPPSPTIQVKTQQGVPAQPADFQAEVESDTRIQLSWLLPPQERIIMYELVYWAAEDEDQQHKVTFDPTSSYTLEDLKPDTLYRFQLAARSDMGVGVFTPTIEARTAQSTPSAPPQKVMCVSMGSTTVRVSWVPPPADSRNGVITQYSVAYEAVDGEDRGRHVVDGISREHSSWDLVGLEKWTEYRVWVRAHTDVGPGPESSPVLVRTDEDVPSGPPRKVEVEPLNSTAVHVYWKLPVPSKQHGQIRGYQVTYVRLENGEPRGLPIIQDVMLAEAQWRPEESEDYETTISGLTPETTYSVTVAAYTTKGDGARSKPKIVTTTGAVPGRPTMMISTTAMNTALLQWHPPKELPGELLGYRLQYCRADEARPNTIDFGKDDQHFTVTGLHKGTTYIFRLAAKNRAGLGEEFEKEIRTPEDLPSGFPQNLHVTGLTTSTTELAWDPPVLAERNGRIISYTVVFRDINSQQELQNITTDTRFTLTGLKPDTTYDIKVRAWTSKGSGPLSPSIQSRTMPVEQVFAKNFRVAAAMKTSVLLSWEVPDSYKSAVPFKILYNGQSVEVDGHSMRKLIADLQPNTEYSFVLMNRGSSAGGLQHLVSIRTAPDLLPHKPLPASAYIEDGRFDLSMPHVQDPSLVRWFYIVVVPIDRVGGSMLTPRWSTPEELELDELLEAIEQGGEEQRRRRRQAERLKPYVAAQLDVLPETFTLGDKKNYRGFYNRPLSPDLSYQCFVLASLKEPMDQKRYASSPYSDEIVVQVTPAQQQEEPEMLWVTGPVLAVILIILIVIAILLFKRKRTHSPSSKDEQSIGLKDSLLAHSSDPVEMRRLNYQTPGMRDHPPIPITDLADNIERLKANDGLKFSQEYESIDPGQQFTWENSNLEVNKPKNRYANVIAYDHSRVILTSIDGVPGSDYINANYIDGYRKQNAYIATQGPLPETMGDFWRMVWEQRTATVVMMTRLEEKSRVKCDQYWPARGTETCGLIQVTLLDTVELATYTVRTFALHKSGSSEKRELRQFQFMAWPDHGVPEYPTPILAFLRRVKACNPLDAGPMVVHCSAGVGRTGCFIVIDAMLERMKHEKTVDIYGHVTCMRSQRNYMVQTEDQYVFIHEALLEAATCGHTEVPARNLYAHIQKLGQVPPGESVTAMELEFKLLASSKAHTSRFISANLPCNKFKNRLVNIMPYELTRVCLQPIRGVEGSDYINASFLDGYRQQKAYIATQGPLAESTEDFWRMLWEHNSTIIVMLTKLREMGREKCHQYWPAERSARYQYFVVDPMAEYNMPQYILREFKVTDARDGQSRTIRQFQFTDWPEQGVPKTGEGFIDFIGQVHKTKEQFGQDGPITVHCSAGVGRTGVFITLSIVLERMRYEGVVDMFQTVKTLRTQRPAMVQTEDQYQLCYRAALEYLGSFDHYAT

[5] = target: T4, Tyrosine-protein phosphatase non-receptor type 1 (Homo sapiens) (UniProt P18031); test: Inhibition of PTP1B (unknown origin) at 5 ug/ml
T4 sequence (whole entry): T2 sequence (P18031 whole entry)

[6] = target: Tyrosine-protein phosphatase non-receptor type 6 (Homo sapiens, UniProt P29350); test: Inhibition of SHP1 (unknown origin)
Chain of Tyrosine-protein phosphatase non-receptor type 6 (P29350 whole entry): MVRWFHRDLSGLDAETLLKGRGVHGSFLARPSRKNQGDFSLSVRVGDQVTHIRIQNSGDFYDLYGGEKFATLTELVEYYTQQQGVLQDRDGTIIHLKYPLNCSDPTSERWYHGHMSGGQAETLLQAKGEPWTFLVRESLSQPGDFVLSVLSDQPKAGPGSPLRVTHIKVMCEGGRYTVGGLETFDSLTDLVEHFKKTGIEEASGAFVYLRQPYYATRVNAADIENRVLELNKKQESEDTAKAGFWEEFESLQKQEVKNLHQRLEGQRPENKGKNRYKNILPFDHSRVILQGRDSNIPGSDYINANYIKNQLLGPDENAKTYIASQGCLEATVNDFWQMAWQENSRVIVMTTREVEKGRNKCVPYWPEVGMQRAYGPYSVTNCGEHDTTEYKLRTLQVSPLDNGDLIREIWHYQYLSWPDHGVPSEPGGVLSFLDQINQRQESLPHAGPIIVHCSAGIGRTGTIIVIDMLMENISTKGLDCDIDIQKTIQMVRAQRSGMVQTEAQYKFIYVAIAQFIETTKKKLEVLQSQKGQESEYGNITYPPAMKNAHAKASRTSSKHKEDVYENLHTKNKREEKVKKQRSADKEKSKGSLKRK

[7] = target: T5, Tyrosine-protein phosphatase non-receptor type 2 (Homo sapiens, UniProt P17706); test: Inhibition of TCPTP (unknown origin)
T5 sequence (P17706 whole entry): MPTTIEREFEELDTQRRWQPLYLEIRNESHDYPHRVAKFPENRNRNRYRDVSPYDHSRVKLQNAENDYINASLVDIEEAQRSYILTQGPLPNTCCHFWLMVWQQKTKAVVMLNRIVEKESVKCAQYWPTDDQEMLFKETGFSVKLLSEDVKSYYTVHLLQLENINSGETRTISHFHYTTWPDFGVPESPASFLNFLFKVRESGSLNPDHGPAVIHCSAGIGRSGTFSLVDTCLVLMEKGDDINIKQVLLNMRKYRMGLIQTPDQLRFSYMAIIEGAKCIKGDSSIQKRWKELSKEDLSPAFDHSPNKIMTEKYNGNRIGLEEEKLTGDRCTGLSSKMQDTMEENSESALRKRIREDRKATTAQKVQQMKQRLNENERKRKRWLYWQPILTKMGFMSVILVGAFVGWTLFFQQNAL

[8] = target: T6, M-phase inducer phosphatase 2 (Homo sapiens, UniProt P30305); test: Inhibition of Cdc25B (unknown origin)
T6 sequence (P30305 whole entry): T1 sequence (whole entry)

inhibition [1] [%] | IC50 [2] [µM] | IC50 [3] | IC50 [4] | inhibition [5] [%] | IC50 [6] | IC50 [7] | IC50 [8] [µM] | Compound
46.4 | 13.8 | Not Active | Not Active | 63 | Not Active | Not Active |  | O=C(Nc1nnc(-c2ccc(Oc3ccc([N+](=O)[O-])cc3)cc2)s1)c1ccccc1Cl
31.7 | 20 | Not Active | Not Active | 77.1 | Not Active | Not Active |  | O=C(Nc1nnc(-c2ccc(Oc3ccc([N+](=O)[O-])cc3)cc2)s1)c1ccc(F)cc1
92.6 | 10.8 | Not Active | Not Active | 86.3 | Not Active | Not Active | 8.33 | COc1cccc(C(=O)Nc2nnc(-c3ccc(Oc4ccc([N+](=O)[O-])cc4[N+](=O)[O-])cc3)s2)c1
97 | 10 | Not Active | Not Active | 82.4 | Not Active | Not Active | 8.01 | O=C(Nc1nnc(-c2ccc(Oc3ccc([N+](=O)[O-])cc3)cc2)s1)c1cccnc1
94 | 8.05 | Not Active | Not Active | 60.4 | Not Active | Not Active | 9.41 | Cc1ccccc1C(=O)Nc1nnc(-c2ccc(Oc3ccc([N+](=O)[O-])cc3)cc2)s1
88.8 | 9.08 | Not Active | Not Active | 72.6 | Not Active | Not Active | 2.77 | COc1ccc(C(=O)Nc2nnc(-c3ccc(Oc4ccc([N+](=O)[O-])cc4)cc3)s2)cc1
26.1 | 13.1 | Not Active | Not Active | 84.8 | Not Active | Not Active |  | COc1ccccc1C(=O)Nc1nnc(-c2ccc(Oc3ccc([N+](=O)[O-])cc3)cc2)s1
24.2 | 1.83 | Not Active | Not Active | 94.6 | Not Active | Not Active |  | O=C(Nc1nnc(-c2ccc(Oc3ccc([N+](=O)[O-])cc3)cc2)s1)c1cccc([N+](=O)[O-])c1
25.8 | 19.1 | Not Active | Not Active | 68.4 | Not Active | Not Active |  | Cc1ccc(C(=O)Nc2nnc(-c3ccc(Oc4ccc([N+](=O)[O-])cc4)cc3)s2)cc1
2.52 |  | Not Active | Not Active | 32.1 | Not Active | Not Active |  | COc1cccc(C(=O)Nc2nnc(-c3ccc(Oc4ccc([N+](=O)[O-])cc4)cc3)s2)c1
81.7 |  | Not Active | Not Active | 37.1 | Not Active | Not Active | 10.5 | O=C(Nc1nnc(-c2ccc(Oc3ccc([N+](=O)[O-])cc3)cc2)s1)c1cccc(F)c1
13 | 9.17 | Not Active | Not Active | 85 | Not Active | Not Active |  | O=C(Nc1nnc(-c2ccc(Oc3ccc([N+](=O)[O-])cc3)cc2)s1)c1ccccc1[N+](=O)[O-]

Further lines, the compound ahead of its results:

Compound | inhibition [1] [%] | IC50 [2] [µM] | IC50 [3] | IC50 [4] | inhibition [5] [%] | IC50 [6] | IC50 [7] | IC50 [8] [µM]
O=C(Cc1cccc2ccccc12)Nc1nnc(-c2ccc(Oc3ccc([N+](=O)[O-])cc3)cc2)s1 | 90.4 | 7.52 | Not Active | Not Active | 74.1 | Not Active | Not Active | 5.16
O=C(Nc1nnc(-c2ccc(Oc3ccc([N+](=O)[O-])cc3[N+](=O)[O-])cc2)s1)c1ccc(Cl)cc1 | 90.2 |  | Not Active | Not Active | 42.3 | Not Active | Not Active | 4.44
Cc1ccc(C(=O)Nc2nnc(-c3ccc(Oc4ccc([N+](=O)[O-])cc4[N+](=O)[O-])cc3)s2)cc1 | 94.5 | 10.8 | Not Active | Not Active | 85.3 | Not Active | Not Active | 2.47
Cc1ccccc1C(=O)Nc1nnc(-c2ccc(Oc3ccc([N+](=O)[O-])cc3[N+](=O)[O-])cc2)s1 | 93.7 | 8.44 | Not Active | Not Active | 84 | Not Active | Not Active | 6.51
SODIUM ORTHOVANAD |  |  | 24.1 µg/mL |  |  | 15.9 µg/mL |  | 
O=C(Nc1nnc(-c2ccc(Oc3ccc([N+](=O)[O-])cc3[N+](=O)[O-])cc2)s1)c1cccc(Cl)c1 | 37 | 6.71 | Not Active | Not Active | 80.7 | Not Active | Not Active | 
COc1ccccc1C(=O)Nc1nnc(-c2ccc(Oc3ccc([N+](=O)[O-])cc3[N+](=O)[O-])cc2)s1 | 17.5 | 3.81 | Not Active | Not Active | 91.3 | Not Active | Not Active | 
COc1ccc(C(=O)Nc2nnc(-c3ccc(Oc4ccc([N+](=O)[O-])cc4[N+](=O)[O-])cc3)s2)cc1 | 28.9 | 7.6 | Not Active | Not Active | 92.9 | Not Active | Not Active | 
O=C(Cc1ccccc1)Nc1nnc(-c2ccc(Oc3ccc([N+](=O)[O-])cc3)cc2)s1 | 43.6 | 12.6 | Not Active | Not Active | 54.9 | Not Active | Not Active | 
